Measured values as given in patent US6448283B1, “Methods for preventing/treating damage to sensory hair cells and cochlear neurons” (Cephalon, Inc., priority 1998, dated 2002).
Several values for one entry are separate records, joined by “and”; a condition that tells them apart may be missing. Equal values may be shown once. Entries after “also recorded” stand apart in the source; their conditions may differ.

Assays:
[1] = system: pigmented guinea pigs exposed to traumatic octave band noise; assay: ABR hearing thresholds after noise trauma (Example 1); assay type: in vivo; conditions: guinea pig; 1 mg/kg s.c. daily from 24 h before noise to day 21; noise 4.0 kHz 125 dB SPL 105 min; across test frequencies; 21 days after exposure
Description: (§1) Baseline hearing of 8 pigmented guinea pigs (200-300 g) was tested by ABR as described below. ABR is a measure of hearing function. Four animals were treated with daily subcutaneous (s.c.) injections of the compound of Formula II, 1 mg/kg, starting 24 hours prior to noise trauma and lasting until 21 days after exposure to the noise trauma. Four animals served as controls and received only vehicle (the fourth animal died under anaesthesia). All the animals were exposed to traumatic octave band noise, center frequency 4.0 kHz, 125 dB SPL (sound pressure level) for 105 min.
ABR thresholds were again determined 21 days after exposure to the noise trauma. ABR thresholds were measured with System II hardware and BioSig software (Tucker Davis Technology). Stimulus with 1 ms cos2 rise and fall and 18 ms plateau was presented with Beyer earphone connected to speculum (placed in the meatus of the external ear canal) at a rate of 20 Hz. Stimulus was calibrated against a Bruel & Kjaer 4134 microphone connected to a Bruel & Kjaer 2203 sound level meter. A Grass P15 preamplifier and custom amplifier provided gain of 10^5 and filtering of 0.3 to 3.0 kHz. Two responses were obtained at each intensity level. Thresholds were determined for the frequencies 2, 4, 8, 16 and 32 kHz from a set of responses at varying intensities with 5 dB intervals and 1000 sweeps near threshold.

[2] = system: outer sensory hair cells of the organ of Corti; assay: Cytocochleogram counts of lost outer sensory hair cells after noise trauma (Example 1); assay type: in vivo, guinea pig; conditions: day 21
Description: as §1
After the treatment period of 21 days and measurement of ABRs, the animals were sacrificed and the temporal bones fixed by 4% PFA (paraformaldehyde) through perilymphatic perfusion. The left cochleas were dissected for surface specimens and the number of sensory hair cells in each auditory organ was evaluated by cytocochleograms. The upper halves of the cochleas were processed for cytocochleograms without embedding by staining cochlear whole mounts with rhodamine phalloidine (Molecular Probes, Eugene, Ore.) in PBS containing 0.25% Triton X-100 overnight at 4° C and mounted in Vectashield (Vector). Phalloidin is a specific marker for cellular F-actin. Basal halves of the cochleas were embedded in
Epon and processed for cytocochleograms. Selected sections of Epon-embedded cochlear turns were processed for fine structural study by electron microscopy.

[3] = system: hair cells (IHC, OHC) of the organ of Corti; assay: Cytocochleograms of missing hair cells after noise exposure (Example 2); assay type: in vivo, guinea pig; conditions: 2 weeks after noise exposure
[4] = system: gentamicin-treated guinea pigs; assay: ABR threshold shifts after gentamicin treatment; assay type: in vivo, guinea pig; conditions: gentamicin 120 mg/kg s.c. 14 days plus Formula II 1 mg/kg daily; day 30; n=8; P<0.01
Description: Adult Dunkin-Hartley female guinea pigs (weight 300-400 g) were used. They were given free access to water and a regular guinea pig diet. The animals were given 1 week of adjustment before baseline ABR recordings and gentamicin (GM) treatment.
Two experimental groups were formed. Group 1 guinea pigs served as control and were treated with gentamicin only. The animals were injected s.c. with gentamicin at 120 mg/kg body weight, once daily for 14 days. Three guinea pigs (yielding a total of 6 inner ears) were included in this group. The animals were decapitated 30 days after the start of the injections.
Group 2 guinea pigs were treated with gentamicin plus Formula II. The animals were injected s.c. with GM at 120 mg/kg body weight, plus Formula II at 1 mg/kg, once daily for 14 days. Formula II treatment started 1 day before GM injections. Formula II treatment was continued for 28 or 29 days. Four guinea pigs (8 inner ears) were included in this group. The animals were decapitated 30 days after the start of GM injections.
ABRs were determined 1 day before GM injections (baseline values) and at day 30 after the start of the GM injections. […] Thresholds were determined at frequencies 2, 4, 8, 16 and 32 kHz from a set of responses at varying intensities with 5 dB intervals and 1000 sweeps near the threshold. ABRs were measured with System II hardware and BioSig software. […]

[5] = system: JNK signaling cascade (JNK and c-Jun phosphorylation); assay: Phospho-JNK and phospho-c-Jun immunostaining in neomycin-exposed cochlear explants; assay type: cell-based, rat; conditions: 500 nM Formula II coincubated with neomycin; n=5 explants
Description: Six, 12 and 24 hr after adding 100 μM neomycin to the medium, cochlear cultures were fixed with 4% paraformaldehyde in PBS for 30 min. The specimens were prepared for 5 um-thick paraffin sections. They were stained with a TUNEL-kit, mounted in Vectashield containing DAPI nuclear counterstain (Vector, Burlingame, Calif.), and viewed under an Olympus Provis microscope (Tokyo, Japan) using epifluorescence. In addition to TUNEL-staining, DNA fragmentation was verified under UV illumination using DAPI counterstain.
Adjacent sections were immunostained with a polyclonal phospho-c-Jun antibody (Ser73, 1:500; New England Biolabs, Beverly, Mass.) and a polyclonal phospho-JNK antibody (Thr183/Tyr185, 1:250 dilution; New England Biolabs). The phospho-JNK antibody detects the dually phosphorylated isoforms of JNK 1, 2 and 3. The specificity of the phospho-specific antibodies was verified by Western blotting using sorbitol-treated PC 12 cells. Phospho-JNK antibody recognized the phosphorylated p54/p46 JNK and phospho-c-Jun antibody the phosphorylated p46 c-Jun in sorbitol-treated, but not in untreated PC 12 cells. […] Calbindin immunoreaction was detected using the ABC method and diaminobenzidine without tyramide signal amplification, and the sections were lightly counterstained with 1% toluidine blue. […]

[6] = system: motorneurons; conditions: by inhibiting the JNK signaling pathway; Maroney et al., 1998; cited from earlier work
[7] = single animal, 1 mg/kg s.c. daily, noise 125 dB SPL 105 min, 1 mg/kg

CCSCc1ccc2c(c1)c1c3c(c4c5cc(CSCC)ccc5n5c4c1n2C1C[C@](O)(C(=O)OC)[C@]5(C)O1)CNC3=O [Formula II]
ABR threshold shift [1]: 20-40 dB | % OHC LOST, MEAN ([2]; mean of 4 Formula II animals): 6.1% | LOST OUTER SENSORY CELLS (OHC): OCH1, MEAN ([2]; mean of 4 Formula II animals): 133 | LOST OUTER SENSORY CELLS (OHC): OCH2, MEAN ([2]; mean of 4 Formula II animals): 107 | LOST OUTER SENSORY CELLS (OHC): OCH3, MEAN ([2]; mean of 4 Formula II animals): 143 | TOTAL OHC LOST, MEAN ([2]; mean of 4 Formula II animals): 383 | % OHC LOST [2, 7]: 3.1% and 0.8% and 1.4% and 19.0% | LOST OUTER SENSORY CELLS (OHC): OCH1 [2, 7]: 90 and 19 and 36 and 356 | LOST OUTER SENSORY CELLS (OHC): OCH2 [2, 7]: 25 and 3 and 18 and 381 | LOST OUTER SENSORY CELLS (OHC): OCH3 [2, 7]: 71 and 27 and 46 and 428 | TOTAL OHC LOST [2, 7]: 186 and 49 and 100 and 1195 | hair cell loss versus noise-exposed control (cytocochleograms) ([3]; in words): rescues IHCs as well as OHCs of each of the 3 rows; also recorded: significantly lower percentage of sensory hair cells were lost | extent of the area of destruction of the organ of Corti ([3]; Formula II treated cochleas): 0.1-0.2 mm | ABR threshold shift versus control cochleas (GM only) [4]: less threshold shift at all frequencies tested | induction of JNK and c-Jun phosphorylation in hair cells [5]: prevented | death of motorneurons in vitro [6]: prevent death of motorneurons in vitro
